26 molecules from patent US20230113037A1 (Bayer Aktiengesellschaft, priority 2019, published 2023) can be followed below.

This assay has as its target T1, AHR (Homo sapiens, UniProt P35869).
T1 construct: U87 MG glioblastoma cells (ATCC #HTB-14) endogenously expressing AHR; endogenous in cells; host or cells: U87 MG glioblastoma cells (ATCC #HTB-14)
T1 sequence (P35869 11-848): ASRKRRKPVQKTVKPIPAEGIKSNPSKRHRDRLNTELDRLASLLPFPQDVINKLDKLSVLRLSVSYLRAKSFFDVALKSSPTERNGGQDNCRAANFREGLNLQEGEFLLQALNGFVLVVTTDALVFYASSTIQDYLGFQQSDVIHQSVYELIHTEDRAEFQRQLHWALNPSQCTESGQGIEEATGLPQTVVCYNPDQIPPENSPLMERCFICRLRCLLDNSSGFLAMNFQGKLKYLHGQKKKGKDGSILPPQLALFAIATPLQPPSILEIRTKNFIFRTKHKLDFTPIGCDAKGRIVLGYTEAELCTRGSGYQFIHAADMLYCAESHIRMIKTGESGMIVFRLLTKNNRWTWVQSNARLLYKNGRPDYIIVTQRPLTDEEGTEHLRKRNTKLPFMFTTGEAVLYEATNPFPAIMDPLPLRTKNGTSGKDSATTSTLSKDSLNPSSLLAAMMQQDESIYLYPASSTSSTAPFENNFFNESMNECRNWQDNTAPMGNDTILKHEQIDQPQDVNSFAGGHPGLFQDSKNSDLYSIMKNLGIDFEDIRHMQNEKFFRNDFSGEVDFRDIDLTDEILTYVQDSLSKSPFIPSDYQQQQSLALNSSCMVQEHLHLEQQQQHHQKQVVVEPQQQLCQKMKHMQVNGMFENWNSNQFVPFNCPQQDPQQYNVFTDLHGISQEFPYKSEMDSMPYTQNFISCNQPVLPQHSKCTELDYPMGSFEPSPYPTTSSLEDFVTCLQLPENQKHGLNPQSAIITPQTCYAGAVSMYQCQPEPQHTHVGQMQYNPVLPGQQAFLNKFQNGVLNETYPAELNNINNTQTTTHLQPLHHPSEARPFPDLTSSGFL
Nature of the assay: In vitro assay 1: antagonism in human cell line (AHR transactivation, firefly luciferase reporter, kynurenic acid prestimulated). The note with it: AHR Antagonism Human IC50 [M]. Type of assay: cell-based. The procedure: Examples were tested in selected biological assays one or more times. When tested more than once, data are reported as either average values or as median values, wherein • the average value, also referred to as the arithmetic mean value, represents the sum of the values obtained divided by the number of times tested, and • the median value represents the middle number of the group of values when ranked in ascending or descending order. If the number of values in the data set is odd, the median is the middle value. If the number of values in the data set is even, the median is the arithmetic mean of the two middle values.
Transactivation assays were carried out in U87 MG glioblastoma cells (ATCC #HTB-14) endogenously expressing AHR. In addition the cells were stably transfected with an AHR inducible firefly luciferase reporter gene construct that carried AHR-binding sites (DRE) in its promoter and a renilla reporter gene construct with constitutively active promoter. Kynurenic acid is an endogenous AHR activating ligand and was used to prestimulate test cells prior to testing the antagonistic properties of compounds.
As positive inhibition control cells supplemented with 150 μM kynurenic acid were incubated in presence of 5 μM Staurosporin. Normalization was done by positive and negative controls.
Firefly luciferase and Renilla activity was determined by the DualGlo Luciferase Assay System (Promega, #2920). Renilla activity was used to assess toxic effects of compounds.
A general note: A reporter such as luciferase makes a cellular process visible.

“And” between values parts separate entries of the source, which are not always exact repeats. Equal entries are not always repeated. Some results are limits rather than exact numbers.

Broadly, the IC50 is the concentration that gives 50% inhibition. Read a high IC50 as lower potency.

Molecule `O=C1NCCCC[C@H]1Nc1nc2ccccc2c2nc(-c3ccccc3Cl)nn12` [Example 58, (3R)-3-{[2-(2-chlorophenyl)[1,2,4]triazolo[1,5-c]quinazolin-5-yl]amino}azepan-2-one] gave an IC50 of 1.05e-08 M.
Then `COc1cc2nc(N[C@@H]3CCCCNC3=O)n3nc(-c4cnn(C)c4)nc3c2cc1OC` [Example 589, (3R)-3-{[8,9-dimethoxy-2-(1-methyl-1H-pyrazol-4-yl)[1,2,4]triazolo[1,5-c]quinazolin-5-yl]amino}azepan-2-one], with more than 2e-05 M; and `CC[C@@H](Nc1nc2ccccc2c2nc(-c3cccc(Br)c3)nn12)C(N)=O` [Example 445, (2R)-2-{[2-(3-bromophenyl)[1,2,4]triazolo[1,5-c]quinazolin-5-yl]amino}butanamide], with 9.27e-08 M.
The same measure for `COc1ccc(-c2nc3c4cc(OC)c(OC)cc4nc(N[C@@H]4CCCCNC4=O)n3n2)cc1` [Example 590, (3R)-3-{[8,9-dimethoxy-2-(4-methoxyphenyl)[1,2,4]triazolo[1,5-c]quinazolin-5-yl]amino}azepan-2-one]: 3.65e-07 M; for `O=C1NCCCC[C@H]1Nc1nc2c(C(F)(F)F)cccc2c2nc(-c3cccc(F)c3)nn12` [Example 581, (3R)-3-{[2-(3-fluorophenyl)-7-(trifluoromethyl)[1,2,4]triazolo[1,5-c]quinazolin-5-yl]amino}azepan-2-one]: 1.69e-09 M.
For the molecule `COc1cccc(-c2nc3c4ccc(C)cc4nc(N[C@@H]4CCCCNC4=O)n3n2)c1` [Example 145, (3R)-3-{[2-(3-methoxyphenyl)-8-methyl[1,2,4]triazolo[1,5-c]quinazolin-5-yl]amino}azepan-2-one], half-maximal inhibition (IC50) was put at 3.17e-08 M.
`Cc1cc(-c2nc3c4ccccc4nc(N[C@@H]4CCCCNC4=O)n3n2)ccc1F` [Example 626, (3R)-3-{[2-(4-fluoro-3-methylphenyl)[1,2,4]triazolo[1,5-c]quinazolin-5-yl]amino}azepan-2-one]: the IC50 was 9.2e-10 M.
Then `COc1cccc2c1nc(N[C@@H]1CCCCNC1=O)n1nc(-c3cn[nH]c3)nc21` [Example 755, (3R)-3-{[7-methoxy-2-(1H-pyrazol-4-yl)[1,2,4]triazolo[1,5-c]quinazolin-5-yl]amino}azepan-2-one], with 9.19e-06 M; and `Cn1cc(-c2nc3c4cccc(C(F)(F)F)c4nc(N[C@@H]4CCNC4=O)n3n2)cn1` [Example 586, (3R)-3-{[2-(1-methyl-1H-pyrazol-4-yl)-7-(trifluoromethyl)[1,2,4]triazolo[1,5-c]quinazolin-5-yl]amino}pyrrolidin-2-one], with 2.79e-07 M; and `COc1cccc(-c2nc3c4ccccc4nc(NC4CCN(C)C4=O)n3n2)c1` (centres unmarked) [Example 80, 3-{[2-(3-methoxyphenyl)[1,2,4]triazolo[1,5-c]quinazolin-5-yl]amino}-1-methylpyrrolidin-2-one], with 2.53e-08 M.
On to `O=C1NCCCC[C@H]1Nc1nc2cccc(Cl)c2c2nc(-c3cccc(F)c3)nn12` [Example 167, (3R)-3-{[10-chloro-2-(3-fluorophenyl)[1,2,4]triazolo[1,5-c]quinazolin-5-yl]amino}azepan-2-one], for which the midpoint of inhibition, the IC50, lay at 6.39e-09 M.
Then `O=C1NCCCC[C@H]1Nc1nc2cccc(Br)c2c2nc(-c3cccc(F)c3)nn12` [Example 163, (3R)-3-{[10-bromo-2-(3-fluorophenyl)[1,2,4]triazolo[1,5-c]quinazolin-5-yl]amino}azepan-2-one], with 2.14e-08 M.
Then `O=C1NCCCC[C@H]1Nc1nc2cccc(C(F)(F)F)c2c2nc(-c3cccc(F)c3)nn12` [Example 171, (3R)-3-{[2-(3-fluorophenyl)-10-(trifluoromethyl)[1,2,4]triazolo[1,5-c]quinazolin-5-yl]amino}azepan-2-one], with 6.2e-08 M; and `COc1cccc(-c2nc3c4ccc(F)cc4nc(N[C@H]4CCNC4=O)n3n2)c1` [Example 149, (3S)-3-{[8-fluoro-2-(3-methoxyphenyl)[1,2,4]triazolo[1,5-c]quinazolin-5-yl]amino}pyrrolidin-2-one], with 1.81e-07 M; and `CCCCC(Nc1nc2ccccc2c2nc(-c3cccc(OC(F)(F)F)c3)nn12)C(N)=O` (centres unmarked) [Example 323], with > 2e-05 M and 1.32e-05 M and 8.31e-06 M.
Consider `COc1ccc(-c2nc3c4ccc(OC)cc4nc(N[C@@H]4CNCCNC4=O)n3n2)cc1` [Example 272, (6R)-6-{[8-methoxy-2-(4-methoxyphenyl)[1,2,4]triazolo[1,5-c]quinazolin-5-yl]amino}-1,4-diazepan-5-one], for which the IC50 was 2.77e-06 M.
Then `Cn1cc(-c2nc3c4ccccc4nc(NC4CCNC4=O)n3n2)cn1` (single isomer, unassigned) [Example 19, 3-{[2-(1-methyl-1H-pyrazol-4-yl)[1,2,4]triazolo[1,5-c]quinazolin-5-yl]amino}pyrrolidin-2-one], with more than 2e-05 M; and `COc1cccc(-c2nc3c4ccccc4nc(NC4(C(N)=O)CCCC4)n3n2)c1` [Example 99, 1-{[2-(3-methoxyphenyl)[1,2,4]triazolo[1,5-c]quinazolin-5-yl]amino}cyclopentane-1-carboxamide], with 6.78e-08 M; and `CCCCNC(=O)CNc1nc2ccccc2c2nc(-c3cccc(OC(F)(F)F)c3)nn12` [Example 317, N-butyl-N^2-{2-[3-(trifluoromethoxy)phenyl][1,2,4]triazolo[1,5-c]quinazolin-5-yl}glycinamide], with 1.45e-07 M.
Then `CCC[C@@H](Nc1nc2ccccc2c2nc(-c3csc(C)c3)nn12)C(=O)NC` [Example 357, N-methyl-N^2-[2-(5-methylthiophen-3-yl)[1,2,4]triazolo[1,5-c]quinazolin-5-yl]-D-norvalinamide], with 1.35e-09 M; and `COc1ccc2c(c1)nc(N[C@@H]1CCCCNC1=O)n1nc(-c3cnn(C)c3)nc21` [Example 550], with 5.35e-06 M.
Then `Cn1cc(-c2nc3c4cc(C(F)(F)F)ccc4nc(N[C@@H]4CCCCNC4=O)n3n2)cn1` [Example 546, (3R)-3-{[2-(1-methyl-1H-pyrazol-4-yl)-9-(trifluoromethyl)[1,2,4]triazolo[1,5-c]quinazolin-5-yl]amino}azepan-2-one], with 2.24e-06 M; and `CN(C)c1ccccc1-c1nc2c3ccccc3nc(N[C@@H]3CCCCNC3=O)n2n1` [Example 455, (3R)-3-({2-[2-(dimethylamino)phenyl][1,2,4]triazolo[1,5-c]quinazolin-5-yl}amino)azepan-2-one], with 1.17e-07 M.
`Cc1sccc1-c1nc2c3ccccc3nc(N[C@@H]3CCCCNC3=O)n2n1` [Example 346, (3R)-3-{[2-(2-methylthiophen-3-yl)[1,2,4]triazolo[1,5-c]quinazolin-5-yl]amino}azepan-2-one] registered an IC50 of 2.24e-09 M.
The same measure for `O=C1NCCCC[C@H]1Nc1nc2ccccc2c2nc(-c3ccc(F)cc3F)nn12` [Example 201, (3R)-3-{[2-(2,4-difluorophenyl)[1,2,4]triazolo[1,5-c]quinazolin-5-yl]amino}azepan-2-one]: 3.56e-10 M; for `COc1ccc(-c2nc3c4ccc(C5CC5)cc4nc(N[C@@H]4CCCCNC4=O)n3n2)cc1` [Example 251, (3R)-3-{[8-Cyclopropyl-2-(4-methoxyphenyl)[1,2,4]triazolo[1,5-c]quinazolin-5-yl]amino}azepan-2-one]: 3.04e-07 M.
